Experimental data as given in patent US20230338337A1, “BIOMARKERS FOR CANCER THERAPY USING MDM2 ANTAGONISTS” (OTSUKA PHARMACEUTICAL CO., LTD., priority 2019, published 2023).
Read-outs that look alike come from different tables or passages of the source. Each block holds one molecule with its values, some of them ahead of it.

Assays:
[1] = molecular target: MDM2-p53 interaction (in vitro translated MDM2) (Homo sapiens (Human), UniProt Q00987); experiment: MDM2-p53 interaction 96-well plate binding assay (ELISA); conditions: for MDM2 % inhibition at 0.0010: at 0.0010 μM; for MDM2 % inhibition at 0.10: at 0.10 μM
Sequence of MDM2-p53 interaction (in vitro translated MDM2) (Q00987 whole entry): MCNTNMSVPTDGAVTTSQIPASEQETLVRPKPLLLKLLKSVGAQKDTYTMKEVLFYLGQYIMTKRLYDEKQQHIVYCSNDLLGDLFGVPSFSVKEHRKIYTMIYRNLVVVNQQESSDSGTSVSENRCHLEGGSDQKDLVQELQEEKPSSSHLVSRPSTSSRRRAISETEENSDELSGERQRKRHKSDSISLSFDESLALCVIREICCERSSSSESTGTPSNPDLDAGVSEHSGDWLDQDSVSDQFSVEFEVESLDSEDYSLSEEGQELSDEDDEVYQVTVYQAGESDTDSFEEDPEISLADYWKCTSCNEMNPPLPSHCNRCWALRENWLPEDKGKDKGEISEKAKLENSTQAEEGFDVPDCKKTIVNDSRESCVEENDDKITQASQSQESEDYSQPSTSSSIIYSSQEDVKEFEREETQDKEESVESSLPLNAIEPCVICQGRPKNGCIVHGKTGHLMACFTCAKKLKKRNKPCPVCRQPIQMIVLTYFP

SJSA-1 = experiment: Protocol B: CellTiter-Glo cell viability assay; conditions: read-out: SJSA1 IC50 (μM) (Protocol B)

Molecule: 6-{[(1R)-1-(4-chlorophenyl)-7-fluoro-5-[1-(4-fluoropiperidin-4-yl)-1-hydroxypropyl]-3-oxo-1-[(3S)-oxolan-3-yloxy]-2,3-dihydro-1H-isoindol-2-yl]methyl}pyridine-3-carbonitrile [Example 546]
MDM2 % inhibition at 0.0010 [1]: 86%@0.0010

Molecule: (3R)-3-(4-chlorophenyl)-4-fluoro-6-[1-hydroxy-1-(1-methyl-1H-pyrazol-4-yl)ethyl]-3-[(1-hydroxycyclopropyl)methoxy]-2-[(5-methoxypyridin-2-yl)methyl]-2,3-dihydro-1H-isoindol-1-one [Example 228]
MDM2 % at concentration ([1]; at 0.010 μM): 61%@0.010

Molecule: (3R)-3-(4-chlorophenyl)-2-[(5-chloropyrimidin-2-yl)methyl]-4-fluoro-6-[(1S)-1-hydroxy-1-(1-methylpiperidin-4-yl)propyl]-3-[cis-3-hydroxycyclobutoxy]-2,3-dihydro-1H-isoindol-1-one [Example 560]
MDM2 % inhibition at 0.0010 [1]: 30%@0.0010

Molecule: [2H]C([2H])([2H])C1(C([2H])([2H])O[C@]2(c3ccc(Cl)cc3)c3c(F)cc(C(O)(CC)c4cn(C)cn4)cc3C(=O)N2Cc2ccc(C#N)cn2)CC1 (stereo partly drawn) [Example 439, 6-{[(1R)-1-(4-chlorophenyl)-7-fluoro-1-({1-[hydroxy(^2H2)methyl]cyclopropyl}(^2H2)methoxy)-5-[1-hydroxy-1-(1-methyl-1H-imidazol-4-yl)propyl]-3-oxo-2,3-dihydro-1H-isoindol-2-yl]methyl}pyridine-3-carbonitrile]
IC50 (SJSA-1; Protocol B): 0.03 µM

Molecule: 6-{[1-(4-chlorophenyl)-7-fluoro-5-[1-hydroxy-1-(1-methyl-1H-pyrazol-4-yl)ethyl]-3-oxo-1-[cis-3-hydroxycyclobutoxy]-2,3-dihydro-1H-isoindol-2-yl]methyl}pyridine-3-carbonitrile [Example 355]
IC50 (SJSA-1; Protocol B): 4.7 µM

Molecule: 6-{[(1R)-1-(4-chlorophenyl)-7-fluoro-5-[1-hydroxy-1-(1-methyl-1H-pyrazol-4-yl)propyl]-3-oxo-1-[(3S)-oxolan-3-yloxy]-2,3-dihydro-1H-isoindol-2-yl]methyl}pyridine-3-carbonitrile [Example 358]
MDM2 % at concentration [1]: 74%@0.0010

Molecule: 1-({[(1R)-1-(4-chlorophenyl)-2-[(5-chloropyrimidin-2-yl)methyl]-7-fluoro-5-[2-hydroxy-1-(piperazin-1-yl)butan-2-yl]-3-oxo-2,3-dihydro-1H-isoindol-1-yl]oxy}methyl)cyclopropane-1-carbonitrile [Example 536]
MDM2 % inhibition at 0.0010 [1]: 64%@0.0010

Molecule: 2-{[(1R)-1-(4-chlorophenyl)-7-fluoro-5-[(1R)-1-(4-fluorooxan-4-yl)-1-hydroxypropyl]-3-oxo-1-[cis-3-hydroxycyclobutoxy]-2,3-dihydro-1H-isoindol-2-yl]methyl}pyrimidine-5-carbonitrile [Example 505]
MDM2 % inhibition at 0.0010 [1]: 60%@0.0010

Molecule: 2-[(5-chloro-3-hydroxypyridin-2-yl)methyl]-3-(4-chlorophenyl)-4-fluoro-6-[(1S)-1-hydroxy-1-(1-methylpiperidin-4-yl)propyl]-3-[(3S)-oxolan-3-yloxy]-2,3-dihydro-1H-isoindol-1-one [Example 568]
MDM2 % inhibition at 0.0010 [1]: 76%@0.0010

Molecule: (3R)-2-[(5-chloro-3-hydroxypyridin-2-yl)methyl]-3-(4-chlorophenyl)-4-fluoro-6-[1-hydroxy-1-(1-methyl-1H-imidazol-4-yl)propyl]-3-[cis-3-hydroxycyclobutoxy]-2,3-dihydro-1H-isoindol-1-one [Example 488]
MDM2 % inhibition at 0.10 [1]: 56%@0.10

Continued, values first:

IC50 (SJSA-1; Protocol B): 0.45 µM
Molecule: 1-({[(1R)-1-(4-chlorophenyl)-7-fluoro-2-[(5-fluoropyridin-2-yl)methyl]-5-[1-hydroxy-1-(1-methyl-1H-pyrazol-4-yl)ethyl]-3-oxo-2,3-dihydro-1H-isoindol-1-yl]oxy}methyl)cyclopropane-1-carboxamide [Example 209]

MDM2 % inhibition at 0.0010 [1]: 94%@0.0010
Molecule: 1-({[(1R)-1-(4-chlorophenyl)-2-[(5-chloropyrimidin-2-yl)methyl]-7-fluoro-5-[1-(4-fluoropiperidin-4-yl)-1-hydroxypropyl]-3-oxo-2,3-dihydro-1H-isoindol-1-yl]oxy}methyl)cyclopropane-1-carbonitrile [Example 545]

IC50 (SJSA-1; SJSA-1, CellTiter-Glo, 72 hrs): 1 µM
Molecule: 1-({[(1R)-2-[(4-chloro-2-methanesulfonylphenyl)methyl]-1-(4-chlorophenyl)-7-fluoro-5-[1-hydroxy-1-(1-methyl-1H-pyrazol-4-yl)ethyl]-3-oxo-2,3-dihydro-1H-isoindol-1-yl]oxy}methyl)cyclopropane-1-carboxamide [Example 74]

MDM2 % inhibition at 0.0010 [1]: 72%@0.0010
Molecule: (3R)-3-(4-chlorophenyl)-2-[(5-chloropyrimidin-2-yl)methyl]-4-fluoro-6-{1-hydroxy-1-[trans-4-hydroxycyclohexyl]propyl}-3-methoxy-2,3-dihydro-1H-isoindol-1-one [Example 511]

MDM2 % inhibition at 0.10 [1]: 73%@0.10
Molecule: 2-{[(1R)-1-(4-chlorophenyl)-1-[(1-cyanocyclopropyl)methoxy]-7-fluoro-5-[1-hydroxy-1-(1-methyl-1H-imidazol-4-yl)propyl]-3-oxo-2,3-dihydro-1H-isoindol-2-yl]methyl}pyrimidine-5-carbonitrile [Example 463]

IC50 (SJSA-1; Protocol B): 0.64 µM
Molecule: 5-chloro-2-{[(1R)-1-(4-chlorophenyl)-7-fluoro-5-[(1R)-1-(4-fluorooxan-4-yl)-1-hydroxypropyl]-1-methoxy-3-oxo-2,3-dihydro-1H-isoindol-2-yl]methyl}pyridine-3-carboxylic acid (tris(hydroxymethyl)aminomethane salt) [Example 514]

MDM2 % inhibition at 0.10 [1]: 44%@0.10
Molecule: 6-{[(1R)-1-(4-chlorophenyl)-7-fluoro-5-[1-hydroxy-1-(1-methyl-1H-imidazol-4-yl)butyl]-3-oxo-1-[(3S)-oxolan-3-yloxy]-2,3-dihydro-1H-isoindol-2-yl]methyl}pyridine-3-carbonitrile [Example 473]

MDM2 % at concentration ([1]; at 0.030 μM): 49%@0.030
Molecule: (3R)-3-(4-Chlorophenyl)-2-[(1R)-1-(5-chloropyridin-2-yl)-2,3-dihydroxypropyl]-4-fluoro-3-[(1-hydroxycyclopropyl)methoxy]-6-(2-hydroxypropan-2-yl)-2,3-dihydro-1H-isoindol-1-one [Example 331]

MDM2 % inhibition at 0.0010 [1]: 85%@0.0010
Molecule: (3R)-3-(4-chlorophenyl)-2-[(5-chloropyridin-2-yl)methyl]-4-fluoro-6-[1-(4-fluoropiperidin-4-yl)-1-hydroxypropyl]-3-[(2R)-2-hydroxypropoxy]-2,3-dihydro-1H-isoindol-1-one [Example 549]

MDM2 % inhibition at 0.10 [1]: 57%@0.10
Molecule: (3R)-3-(4-chlorophenyl)-2-[(5-chloropyrimidin-2-yl)methyl]-4-fluoro-6-[(1R)-1-hydroxy-1-(1-methylpiperidin-4-yl)propyl]-3-[(3S)-oxolan-3-yloxy]-2,3-dihydro-1H-isoindol-1-one [Example 567]

MDM2 % inhibition at 0.0010 [1]: 87%@0.0010
Molecule: 2-{[(1R)-1-(4-chlorophenyl)-7-fluoro-5-{1-hydroxy-1-[trans-4-hydroxycyclohexyl]propyl}-3-oxo-1-[(3S)-oxolan-3-yloxy]-2,3-dihydro-1H-isoindol-2-yl]methyl}pyrimidine-5-carbonitrile [Example 503]
